Where two headings read alike, the source gives them in different places.
How the values were obtained:
[1] = molecular target: T1, HIF-2α (Homo sapiens, UniProt Q99814); assay: HIF-2α Luciferase Reporter Assay (serum), HRE-luciferase 786-0 cells in 100% human serum; type: cell-based; conditions: for IC50: 100% human serum, 786-0 reporter cells, overnight incubation, read-out: Serum Potency
In short: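 786-0 cells stably expressing an HRE-luciferase reporter were plated and rested 3 h. They were then treated overnight at 37 °C with compound diluted in 100% human serum. Serum was replaced with Opti-MEM, ONE-Glo luminescence was read, and IC50 came from a 4-parameter logistic fit.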

[2] = molecular target: T1, HIF-2α; assay: HIF-2α Luciferase Reporter Assay (serum free) in HIF-Luc-786-0 cells; type: cell-based; conditions: Opti-MEM, 786-0 reporter cells, 20 hours incubation
In short: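 786-0 cells stably transduced with HIF luciferase reporter, 20,000 cells/well in serum-free Opti-MEM, compounds (50 uM downward, 1% DMSO) 20 h at 37 °C. ONE-Glo luminescence normalized to DMSO and no-cell controls; IC50 from four-parameter fit.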

[3] = molecular target: T2, Biotin tagged HIF-2α protein containing PAS-B domain (240-350) (Homo sapiens, UniProt Q99814); assay: HIF-2α Scintillation Proximity Assay (SPA) binding assay; conditions: 50 nM HIF-2α protein, 25 nM 3H-tracer, 2% DMSO
T2 construct: Biotin tagged HIF-2α protein containing PAS-B domain (240-350) was prepared and purified in-house; made in house
T2 sequence (Q99814 240-350): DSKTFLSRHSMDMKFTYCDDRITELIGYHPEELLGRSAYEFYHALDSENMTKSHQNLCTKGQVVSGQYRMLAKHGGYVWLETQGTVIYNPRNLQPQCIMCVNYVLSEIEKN
Procedure: HIF-2α Scintillation Proximity Assay (SPA) Binding Assay:
Biotin tagged HIF-2α protein containing PAS-B domain (240-350) was prepared and purified in-house.
Compounds solubilized in DMSO were dispensed into a white 384-well polystyrene non-binding flat clear bottom plate (Greiner Bio-One, Cat #781903) using an HP D300 dispenser. Ten microliters of biotinylated HIF-2α protein in buffer (25 mM Tris-HCl, pH 7.4, 150 mM NaCl, 0.15% BSA and 0.001% Tween 20) was added to the compound wells and allowed to incubate for 1 hour at room temperature. Ten microliters of SPA bead mix were added to the wells and incubated for an additional 45 minutes, followed by 10 ul of ^3H-tracer solution. Final assay conditions comprised 50 nM HIF-2α protein, 25 nM radiolabeled tracer and 3 ug beads per well with compounds in 2% DMSO. The plate was read using a MicroBeta Microplate Counter (PerkinElmer) for luminescence detection. The IC50 values of the test compounds were determined from compound dose response curves fitted using a standard four parameter fit equation and are reported in Table 2.

[4] = ratio of IC50 in 100% serum to IC50 in serum free conditions, approximate

T1 sequence (Q99814 whole entry): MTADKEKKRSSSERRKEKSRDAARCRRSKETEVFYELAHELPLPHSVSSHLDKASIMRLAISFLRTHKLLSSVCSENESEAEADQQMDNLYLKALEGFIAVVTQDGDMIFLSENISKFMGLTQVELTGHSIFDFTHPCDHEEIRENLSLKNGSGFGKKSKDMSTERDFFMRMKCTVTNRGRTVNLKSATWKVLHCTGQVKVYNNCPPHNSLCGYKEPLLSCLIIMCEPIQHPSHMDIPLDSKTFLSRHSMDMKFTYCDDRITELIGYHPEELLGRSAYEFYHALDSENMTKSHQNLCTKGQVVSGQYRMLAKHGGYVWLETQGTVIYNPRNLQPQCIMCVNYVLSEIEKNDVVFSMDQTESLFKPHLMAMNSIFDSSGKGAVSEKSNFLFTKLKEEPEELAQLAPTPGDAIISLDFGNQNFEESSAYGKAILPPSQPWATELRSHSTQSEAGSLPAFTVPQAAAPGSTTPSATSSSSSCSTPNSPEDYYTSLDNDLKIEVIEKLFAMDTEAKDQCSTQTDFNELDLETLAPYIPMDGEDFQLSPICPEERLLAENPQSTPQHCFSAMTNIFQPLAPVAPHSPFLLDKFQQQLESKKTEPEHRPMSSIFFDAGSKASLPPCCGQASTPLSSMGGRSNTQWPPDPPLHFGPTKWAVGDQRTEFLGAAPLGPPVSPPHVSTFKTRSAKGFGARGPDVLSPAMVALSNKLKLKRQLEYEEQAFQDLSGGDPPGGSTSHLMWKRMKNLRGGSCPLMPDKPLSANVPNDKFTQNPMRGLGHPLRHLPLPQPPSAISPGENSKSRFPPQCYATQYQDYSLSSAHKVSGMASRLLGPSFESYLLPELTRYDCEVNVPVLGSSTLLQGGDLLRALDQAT

Compound	IC50 [1]	Serum Shift (approximate) [1, 4]	IC50 [2]	IC50 [3]	Serum Shift (approximate) [1]
CC(C)(C#N)CCn1nc(C(F)(F)F)c2c1CCC(F)(F)[C@H]2O [Example 1, 4-[(4S)-5,5-Difluoro-4-hydroxy-3-(trifluoromethyl)-6,7-dihydro-4H-indazol-1-yl]-2,2-dimethylbutanenitrile]	> 1000 nM	2	> 1000 nM	100 to 1000 nM	–
O[C@H]1c2c(C(F)(F)F)nn(CC3CC(F)(F)C3)c2CCC1(F)F [Example 2, (4S)-1-[(3,3-difluorocyclobutyl)methyl]-5,5-difluoro-3-(trifluoromethyl)-6,7-dihydro-4H-indazol-4-ol]	> 1000 nM	13	100 to 1000 nM	100 to 1000 nM	–
CC(C#N)CCn1nc(C(F)(F)F)c2c1CCC(F)(F)[C@H]2O (stereo partly drawn) [Example 3, 4-[(4S)-5,5-difluoro-4-hydroxy-3-(trifluoromethyl)-6,7-dihydro-4H-indazol-1-yl]-2-methylbutanenitrile]	100 to 1000 nM	1	100 to 1000 nM	100 to 1000 nM	–
O[C@H]1c2c(C(F)(F)F)nn(C3CCC(F)(F)CC3)c2CCC1(F)F [Example 36, (4S)-1-(4,4-difluorocyclohexyl)-5,5-difluoro-3-(trifluoromethyl)-6,7-dihydro-4H-indazol-4-ol]	–	–	100 to 1000 nM	100 to 1000 nM	–
O[C@H]1c2c(C(F)(F)F)nn([C@H]3CC[C@H](C(F)(F)F)CC3)c2CCC1(F)F [Example 37, (4S)-5,5-difluoro-3-(trifluoromethyl)-1-[4-(trifluoromethyl)cyclohexyl]-6,7-dihydro-4H-indazol-4-ol]	–	–	> 1000 nM	> 1000 nM	–
CO[C@H](CCn1nc(C(F)(F)F)c2c1[C@@H](F)[C@@H](F)[C@H]2O)C(F)(F)F [Example 131, (4S,5S,6R)-5,6-difluoro-1-[(3R)-4,4,4-trifluoro-3-methoxybutyl]-3-(trifluoromethyl)-5,6-dihydro-4H-cyclopenta[c]pyrazol-4-ol]	< 100 nM	2	< 100 nM	–	–
O[C@H]1c2c(C(F)(F)F)nn(C3CCC(F)(F)CC3)c2[C@@H](F)[C@H]1F [Example 132, (4S,5S,6R)-1-(4,4-difluorocyclohexyl)-5,6-difluoro-3-(trifluoromethyl)-5,6-dihydro-4H-cyclopenta[c]pyrazol-4-ol]	> 1000 nM	8	< 100 nM	–	–
O[C@H]1c2c(C(F)(F)F)nn([C@@H]3C[C@@H](F)[C@@H](F)[C@@H](F)C3)c2[C@H](F)[C@H]1F [Example 138, (4S,5S,6S)-5,6-difluoro-1-[(3R,5S)-3,4,5-trifluorocyclohexyl]-3-(trifluoromethyl)-5,6-dihydro-4H-cyclopenta[c]pyrazol-4-ol]	> 1000 nM	9	< 100 nM	–	–
O[C@H]1c2c(C(F)(F)F)nn(CCCC(F)(F)F)c2[C@H](F)[C@H]1F [Example 139, (4S,5S,6S)-5,6-difluoro-1-(4,4,4-trifluorobutyl)-3-(trifluoromethyl)-5,6-dihydro-4H-cyclopenta[c]pyrazol-4-ol]	> 1000 nM	6	< 100 nM	–	–
O[C@H]1c2c(C(F)(F)F)nn([C@@H]3C[C@@H](F)[C@@H](F)[C@@H](F)C3)c2[C@@H](F)[C@H]1F [Example 140, (4S,5S,6R)-5,6-difluoro-1-[(3R,5S)-3,4,5-trifluorocyclohexyl]-3-(trifluoromethyl)-5,6-dihydro-4H-cyclopenta[c]pyrazol-4-ol]	100 to 1000 nM	–	< 100 nM	–	3
O[C@H]1c2c(C(F)(F)F)nn([C@H]3C[C@@H](F)[C@@H](F)[C@@H](F)C3)c2[C@@H](F)[C@H]1F [Example 143, (4S,5S,6R)-5,6-difluoro-1-[(3R,5S)-3,4,5-trifluorocyclohexyl]-3-(trifluoromethyl)-5,6-dihydro-4H-cyclopenta[c]pyrazol-4-ol]	> 1000 nM	9	100 to 1000 nM	–	–
O[C@H]1c2c(C(F)(F)F)nn(CCC3CC3(F)F)c2[C@@H](F)[C@H]1F (stereo partly drawn) [Example 152, (4S,5S,6R)-1-[2-(2,2-difluorocyclopropyl)ethyl]-5,6-difluoro-3-(trifluoromethyl)-5,6-dihydro-4H-cyclopenta[c]pyrazol-4-ol]	100 to 1000 nM	3	100 to 1000 nM	–	–
O[C@H]1c2c(C(F)(F)F)nn([C@@H]3CC[C@@H](F)[C@@H](F)C3)c2[C@H](F)C1(F)F [Example 153, (4S,6S)-1-[(1R,3S,4R)-3,4-difluorocyclohexyl]-5,5,6-trifluoro-3-(trifluoromethyl)-4,6-dihydrocyclopenta[c]pyrazol-4-ol]	> 1000 nM	18	100 to 1000 nM	–	–
O[C@H]1c2c(C(F)(F)F)nn([C@@H]3CC[C@@H](F)[C@@H](F)C3)c2[C@@H](F)C1(F)F [Example 156, (4S,6R)-1-[(1R,3S,4R)-3,4-difluorocyclohexyl]-5,5,6-trifluoro-3-(trifluoromethyl)-4,6-dihydrocyclopenta[c]pyrazol-4-ol]	100 to 1000 nM	8	< 100 nM	–	–
O[C@H]1c2c(C(F)(F)F)nn([C@H]3CC[C@H](F)[C@H](F)C3)c2[C@@H](F)C1(F)F [Example 157, (4S,6R)-1-[(1S,3R,4S)-3,4-difluorocyclohexyl]-5,5,6-trifluoro-3-(trifluoromethyl)-4,6-dihydrocyclopenta[c]pyrazol-4-ol]	< 100 nM	3	< 100 nM	–	–

Now from value to compound, other results behind:

IC50 [1]	Serum Shift (approximate) [1, 4]	IC50 [2]	IC50 [3]	Compound	Serum Shift (approximate) [1]
> 1000 nM	6	100 to 1000 nM	100 to 1000 nM	O[C@H]1c2c(C(F)(F)F)nn(CC3CC3(F)F)c2CCC1(F)F (single isomer, unassigned) [23/24 DIAST-1]	–
> 1000 nM	10	100 to 1000 nM	100 to 1000 nM	O[C@H]1c2c(C(F)(F)F)nn(CC3CC3(F)F)c2CCC1(F)F (single isomer, unassigned) [23/24 DIAST-2]	–
> 1000 nM	18	100 to 1000 nM	100 to 1000 nM	O[C@H]1c2c(C(F)(F)F)nn(CCC3(C(F)(F)F)CC3)c2CCC1(F)F [Example 5, (4S)-5,5-difluoro-3-(trifluoromethyl)-1-[2-[1-(trifluoromethyl)cyclopropyl]ethyl]-6,7-dihydro-4H-indazol-4-ol]	–
–	–	> 1000 nM	> 1000 nM	COCCCn1nc(C(F)(F)F)c2c1CCC(F)(F)[C@H]2O [Example 9, (4S)-5,5-difluoro-1-(3-methoxypropyl)-3-(trifluoromethyl)-6,7-dihydro-4H-indazol-4-ol]	–
–	–	> 1000 nM	> 1000 nM	O[C@H]1c2c(C(F)(F)F)nn(CC3CC3)c2CCC1(F)F [Example 10, (4S)-1-(cyclopropylmethyl)-5,5-difluoro-3-(trifluoromethyl)-6,7-dihydro-4H-indazol-4-ol]	–
–	–	> 1000 nM	> 1000 nM	O[C@H]1c2c(C(F)(F)F)nn(CCOC3CC3(F)F)c2CCC1(F)F (stereo partly drawn) [Example 25, (4S)-1-[2-(2,2-difluorocyclopropoxy)ethyl]-5,5-difluoro-3-(trifluoromethyl)-4,5,6,7-tetrahydro-1H-indazol-4-ol]	–
–	–	> 1000 nM	100 to 1000 nM	O[C@H]1c2c(C(F)(F)F)nn(C[C@H]3C[C@H](F)C3)c2CCC1(F)F [Example 45, (4S)-5,5-difluoro-1-[(3-fluorocyclobutyl)methyl]-3-(trifluoromethyl)-6,7-dihydro-4H-indazol-4-ol]	–
–	–	> 1000 nM	> 1000 nM	CO[C@H]1c2c(C(F)(F)F)nn(CCCC(F)(F)F)c2CCC1(F)F [Example 47, (4S)-5,5-difluoro-4-methoxy-1-(4,4,4-trifluorobutyl)-3-(trifluoromethyl)-6,7-dihydro-4H-indazole]	–
–	–	> 1000 nM	> 1000 nM	CC(CCn1nc(S(C)(=O)=O)c2c1CCC(F)(F)[C@H]2O)C(F)(F)F (stereo partly drawn) [Example 50, (4S)-5,5-difluoro-3-methylsulfonyl-1-(4,4,4-trifluoro-3-methylbutyl)-6,7-dihydro-4H-indazol-4-ol]	–
> 1000 nM	4	100 to 1000 nM	–	[O-][S+](CCn1nc(C(F)(F)F)c2c1CCC(F)(F)[C@H]2O)C(F)F (stereo partly drawn) [Example 128, (4S)-1-[2-(difluoromethylsulfinyl)ethyl]-5,5-difluoro-3-(trifluoromethyl)-6,7-dihydro-4H-indazol-4-ol]	–

Reference: patent US12071411B2, “Inhibitors of HIF-2α and methods of use thereof” (ARCUS BIOSCIENCES, INC., priority 2021, dated 2024)
